Assay [1] relates to PC12 cells. Kind of assay: MTT conversion assay of cell viability under serum deprivation. The assay is classed as cell-based, rat.
In the next assay the test system is AKT and ERK. The assay is classed as cell-based, rat.
Another assay deals with EGFR. Kind of assay: EGFR tyrosine phosphorylation, immunoprecipitation and Western blot in PC12 cells. It is filed as cell-based, rat. Particulars: preincubation 20 min: AG1478 1 μM, PP2 5 μM, naloxone or nor-BNI 1 μM; then leumorphin 1 μM 2 min. The method, then: Immunoprecipitation was performed as previously described (Daub et al., 1997). In brief, cells were washed with ice-cold PBS and lysed with lysis buffer (50 mM HEPES pH 7.5, 150 mM NaCl, 1% Triton X-100, 1 mM EDTA, 10% glycerol) containing protease inhibitors (0.5 mM PMSF, 1 μg/ml leupeptin and 5 μg/ml aprotinin) and phosphatase inhibitors (30 mM NaF, 1 mM Na3VO4 and 30 mM Na4O7P2). The cell lysates were incubated for 1 hr at 4° C. After centrifugation (12,000×g for 15 min), equal amounts of soluble extract were incubated for 4 hr, with 5 μg of anti-EGFR antibody and 30 μl of resin volume of immobilized protein G For gel electrophoresis, the precipitates were dissolved in Laemmli sample buffer.
FIGS. 5C and 5D, PC12 cells were stimulated with the indicated doses of leumorphin for 10 min (C) or with 1 μM of leumorphin for the indicated times (D). […] Cell lysates were subjected to Western blot analysis after immunoprecipitation with EGFR antibodies. Tyrosine-phosphorylated EGFRs were detected by immunoblotting with phosphotyrosine antibodies. The amounts of the precipitated EGFRs were monitored by reprobing the same blot with EGFR antibodies. […] In FIG. 5G, PC12 cells were preincubated with 1 μM AG1478 or 5 μM PP2 for 20 min and then stimulated with 1 μM leumorphin for 10 min. Phosphorylation of AKT and ERK was detected by Western blot analysis as in FIG. 4F. C-E,

Assay [2] relates to PC12 cells. The experiment in a line: DNA ploidy analysis (FACS, sub-Go/Gl) in serum-deprived PC12 cells. The assay is classed as cell-based, rat. Conditions: antagonist 1 μM with leumorphin 1 μM, 24 hr. The method, then: Cells were suspended in PBS containing 5 mM EDTA and fixed in 100% ethanol. RNase A (50 μg/ml) was added to the suspended cells, and the cells were incubated at room temperature for 30 min. Propidium iodide (2 μg/ml) was added before reading. DNA contents of the cells were analyzed using a FACScan flow cytometer (Becton Dickinson, Franklin Lakes, N.J.), which was also used to determine the percentage of cells in the different phases of the cell cycle.
(§1) In FIG. 6A, Fragmentation of DNA in the nucleus was detected by a fluorescent TUNEL apoptosis assay. TUNEL stainings are shown in a-c, PI stainings are shown in d-f, and the merged images are presented in g-i. […] Each bar represents a fold increase of TUNEL-positive population of cells after treatment as indicated in serum-deprived condition versus those in serum-growing condition. In FIG. 6C, in order to analyze DNA ploidy, cells were fixed with ethanol, and FACS analysis was performed as described in “Materials and Methods”. In FIG. 6D, caspase-3 activity was measured by using a specific fluorogenic substrate of caspase-3 (Ac-DEVD -AMC) as described in “Materials and Methods”.

The next assay addresses T1, KOR (Rattus norvegicus, UniProt P34975).
T1 construct: confirming that the KOR ligands we used have proper activities and that functional KOR is expressed in PC12 cells; endogenous in cells; host or cells: PC12 (rat pheochromocytoma)
The assay is classed as cell-based.

In assay [3] the test system is PC12 cells. The experiment in a line: Competition binding assay of 125I-labeled leumorphin in PC12 cells. Also noted: species or system rat. Particulars: 25 pM 125I-labeled leumorphin, 3 hr, 4° C. The method, then:
Ligand binding analysis was performed as previously described (Bae et al., 2004). Briefly, PC12 cells were seeded at a density of 4×10^5 cells/well into a 12-well plate and cultured overnight. After incubating the cells in blocking buffer (33 mM HEPES (pH 7.5) and 0.1% BSA in RPMI 1640) for 2 hr, 25 pM of ^125I-labeled leumorphin dissolved in binding buffer (PBS containing 0.1% BSA) was added to the cells in the absence or presence of unlabeled ligands and incubated for 3 hr at 4° C. The samples were then washed five times with ice-cold binding buffer, and 500 μl of 1 N NaOH was added to each well. After 10 min at room temperature, the lysates were collected and counted using a gamma counter.
We investigated the possibility that leumorphin might have another binding site(s), in addition to the binding site for the KOR in PC12 cells. That is, an inhibition of [^125I]leumorphin binding in PC12 cells was investigated. PC12 cells were treated with various concentrations of unlabeled leumorphin, (−)-U-50488 and nor-BNI in the presence of ^125I-labeled leumorphin (25 pM) for 3 hr at 4° C. Specifically bound ^125I-labeled leumorphin was measured as described in “Materials and Methods”. For this purpose, we performed competition binding assay of ^125I-labeled leumorphin with unlabeled-agonists, leumorphin and (−)-U-50488, and an antagonist, nor-BNI.

In another assay the test system is caspase-3. Kind of assay: Caspase-3 enzymatic activity in PC12 cell lysates. The assay is classed as cell-based, rat. Conditions: nor-BNI 1 μM with leumorphin 1 μM, 24 hr. The method, then: PC12 cell lysates were centrifuged at 1,000×g for 10 min. Equal amount of supernatant (20 μg protein) was diluted in buffer containing 100 mM Hepes, 10% sucrose, 5 mM dithiothreitol, […], and 0.1% CHAPS (pH 7.25), and was added to each well of a 96-well plate containing 50 μM DEVD-aminomethylcoumarin (AMC). After incubation at 37° C. for 1 hr, the cleaved free AMC was detected using a fluorospectrophotometer (excitation of 355 nm, emission of 460 nm).
as §1

Counter-ions that a name gives are not always drawn. Like-named read-outs stand apart in the source and are kept apart here.

T1 sequence (P34975 whole entry): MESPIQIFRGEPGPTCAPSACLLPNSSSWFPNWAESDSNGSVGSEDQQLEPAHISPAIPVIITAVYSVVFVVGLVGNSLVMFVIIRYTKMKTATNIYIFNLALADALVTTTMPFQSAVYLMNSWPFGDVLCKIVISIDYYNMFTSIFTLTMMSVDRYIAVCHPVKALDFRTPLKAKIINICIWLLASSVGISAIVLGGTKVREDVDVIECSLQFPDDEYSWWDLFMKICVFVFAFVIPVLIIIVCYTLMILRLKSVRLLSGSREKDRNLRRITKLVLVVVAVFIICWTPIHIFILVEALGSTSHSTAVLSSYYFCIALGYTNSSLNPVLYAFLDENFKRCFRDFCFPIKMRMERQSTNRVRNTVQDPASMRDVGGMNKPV

Regarding `O=c1cc(N2CCOCC2)oc2c(-c3ccccc3)cccc12` [LY294002, [2-(4-morpholinyl)-8-phenyl-4H-1-benzopyran-4-one]], in the assay with PC12 cells [1] (inhibitor 5 μM (AG1478 1 μM) with leumorphin 1 μM, 24 hr), the “effect of kinase inhibitor on leumorphin-induced enhancement of cell viability” value (from here on “effect of kinase inhibitor”) is reported as “attenuated”.
On to `COc1cccc(-c2cc(=O)c3ccccc3o2)c1N` [PD98059, [2′-amino-3′-methoxyflavone], for which the “effect of kinase inhibitor” value in the assay on PC12 cells [1] was “attenuated”.
With `CC(C)(C)n1nc(-c2ccc(Cl)cc2)c2c(N)ncnc21` [PP2], the “effect of kinase inhibitor” value in the assay on PC12 cells [1] is recorded as “significantly inhibited”. For the same molecule, the “effect on leumorphin-induced phosphorylation of AKT and ERK” value in the assay with AKT and ERK is on record as “significantly inhibited”. Besides, in the assay with EGFR, the “effect on leumorphin-induced tyrosine phosphorylation of EGFR” value (“effect … of EGFR” for short) is on record as “completely blocked to the basal level”.
As for `CS/C(N)=C(C#N)/C(C#N)=C(\N)SC` [U0124], the “effect of kinase inhibitor” value in the assay with PC12 cells [1] is given as “had no effect”.
Regarding `N#CC(=C(/N)Sc1ccccc1N)/C(C#N)=C(\N)Sc1ccccc1N` [U0126], the “effect of kinase inhibitor” value with PC12 cells [1] is “attenuated”.
As to `C=CCN1CC[C@]23c4c5ccc(O)c4O[C@H]2C(=O)CC[C@@]3(O)[C@H]1C5` [naloxone], the “effect on leumorphin-induced enhancement of cell viability” value (shortened to “effect on leumorphin-induced enhancement”) in the assay with PC12 cells [1] was “insensitive”. Further, in the assay with AKT and ERK, the “effect on leumorphin-induced phosphorylation of AKT and ERK” value is “Neither of the antagonists, naloxone and nor-BNI, inhibited”; the “effect on the phosphorylation level of AKT and ERK when given alone” value (“effect on the phosphorylation level” below) is given as “did not have any effects”. Moreover, the “effect … of EGFR” value in the assay on EGFR was “neither nor-BNI nor naloxone exhibited any inhibitory effect”. For the same molecule, in the assay with PC12 cells [2], the “effect on the anti-apoptotic effect of leumorphin (sub-Go/Gl)” value is recorded as “failed to block”.
Consider `Oc1ccc2c3c1O[C@H]1c4[nH]c5ccccc5c4C[C@@]4(O)[C@@H](C2)N(CC2CC2)CC[C@]314` [naltrindole], for which, in the assay on PC12 cells [1], the “effect on leumorphin-induced enhancement” value is “failed to attenuate” and the “effect on leumorphin-induced increase in cell viability at higher concentration” value (shortened to “effect on leumorphin-induced increase”) was “failed to attenuate”.
Take `Oc1ccc2c3c1O[C@H]1c4[nH]c5c(c4C[C@@]4(O)[C@@H](C2)N(CC2CC2)CC[C@]314)C[C@@]1(O)[C@H]2Cc3ccc(O)c4c3[C@@]1(CCN2CC1CC1)[C@H]5O4` [nor-BNI, nor-binaltorphimine dihydrochloride]: in the assay with PC12 cells [1], the “effect on leumorphin-induced enhancement” value is listed as “insensitive” and the “effect on leumorphin-induced increase” value is listed as “failed to attenuate”. Moreover, the “effect on the inhibitory effect of leumorphin on forskolin-induced increase of cAMP content” value at KOR was “reversed”. In addition, the “concentration at which the inhibitory extent reached its maximum and was saturated” value in the assay on PC12 cells [3] came out at 100 nM. In the assay on AKT and ERK, the “effect on leumorphin-induced phosphorylation of AKT and ERK” value was “Neither of the antagonists, naloxone and nor-BNI, inhibited”; the “effect on the phosphorylation level” value is “did not have any effects”. Besides, the “effect … of EGFR” value in the assay with EGFR is reported as “neither nor-BNI nor naloxone exhibited any inhibitory effect”. In the assay with PC12 cells [2], the “effect on the anti-apoptotic effect of leumorphin (sub-Go/Gl)” value is “failed to block”. Besides, the “effect on the inhibitory effect of leumorphin on caspase activity” value in the assay with caspase-3 is “not blocked”.
With “D-Phe-Cys-Tyr-D-Trp-Om-Thr-Pen-Thr-NH2 [CTOP]”, in the assay with PC12 cells [1], the “effect on leumorphin-induced enhancement” value is listed as “failed to attenuate” and the “effect on leumorphin-induced increase” value is listed as “failed to attenuate”.
In the case of UFP-101, in the assay on AKT and ERK, the “effect on leumorphin-induced phosphorylation of AKT and ERK” value was “did not have any effect”.
As for dynorphin, the “cell viability (MTT conversion, percentage of surviving cells)” value with PC12 cells [1] was “did not have any significant effect on cell viability”. In the assay with AKT and ERK, the “phosphorylation of AKT and ERK” value is listed as “none of these effects were elicited”.
pertussis toxin [PTX]: the “effect on leumorphin-induced enhancement” value in the assay on PC12 cells [1] is “unaffected”. Besides, on KOR (naloxone or nor-BNI 1 μM, PTX 100 ng/ml 20 hr, leumorphin 1 μM), the “effect on the inhibitory effect of leumorphin on forskolin-induced increase of cAMP content” value is listed as “reversed”. In the assay with AKT and ERK, the “effect on leumorphin-induced phosphorylation of AKT and ERK” value is given as “did not have any inhibitory effects”; the “effect on the phosphorylation level” value is on record as “did not have any effects”.
For the molecule rimorphin, in the assay with PC12 cells [1], the “cell viability (MTT conversion, percentage of surviving cells)” value is given as “none of these effects were elicited”. The “phosphorylation of AKT and ERK” value in the assay with AKT and ERK is reported as “none of these effects were elicited”.
Consider “β-endorphin (YGGFMTSEKSQTPLVTLFKNAIIKNAYKKGE; Beta-endorphin; UniProt P01189 237-267, looked up) [an agonist of the ε-type receptor]”, for which, in the assay on AKT and ERK, the “phosphorylation of AKT and ERK” value was “neither AKT nor ERK was phosphorylated”.
Take “β-neoendorphin (YGGFLRKYP; Beta-neoendorphin; UniProt P01213 175-183, looked up) [prodynorphin gene product, endogenous KOR ligand]”: the “cell viability (MTT conversion, percentage of surviving cells)” value with PC12 cells [1] was “none of these effects were elicited”. The “phosphorylation of AKT and ERK” value in the assay with AKT and ERK is “none of these effects were elicited”.
